pIC50: −log10 of the molar value.
Legend:
[1] = target: T1, purified recombinant COX-2 enzyme (Homo sapiens, UniProt P35354); assay: COX-2 enzyme based assay; type: biochemical; conditions: Conc. 10 μM
T1 sequence (P35354 18-604): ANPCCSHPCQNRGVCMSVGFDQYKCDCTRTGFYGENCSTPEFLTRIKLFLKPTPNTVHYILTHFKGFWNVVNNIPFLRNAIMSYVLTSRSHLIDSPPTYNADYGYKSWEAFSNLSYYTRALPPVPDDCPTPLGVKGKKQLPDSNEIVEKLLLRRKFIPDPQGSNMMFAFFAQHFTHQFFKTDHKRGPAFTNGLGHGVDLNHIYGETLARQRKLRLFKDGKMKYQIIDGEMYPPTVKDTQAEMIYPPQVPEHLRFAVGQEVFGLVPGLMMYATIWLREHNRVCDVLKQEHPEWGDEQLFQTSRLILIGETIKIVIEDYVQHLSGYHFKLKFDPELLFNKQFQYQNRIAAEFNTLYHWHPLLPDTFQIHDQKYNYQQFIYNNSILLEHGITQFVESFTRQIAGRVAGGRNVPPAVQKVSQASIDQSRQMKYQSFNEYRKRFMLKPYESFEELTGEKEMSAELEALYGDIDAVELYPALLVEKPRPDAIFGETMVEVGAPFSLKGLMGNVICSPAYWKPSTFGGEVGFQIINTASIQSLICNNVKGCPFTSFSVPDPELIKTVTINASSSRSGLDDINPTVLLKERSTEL
Protocol: (§1) COX-1 and COX-2 Enzyme Based Assay
(§2) COX-2 enzyme based assays were carried out to check the inhibitory potential of test compounds on the production of prostaglandin by purified recombinant COX-1/COX-2 enzyme (Proc. Nat. Acad. Sci. USA, 88, 2692-2696, 1991; Clin. Immunoassay 15, 116-120, 1992) In this assay, the potential of the test compound to inhibit the production of prostaglandin either by COX-1 or COX-2 from arachidonic acid (substrate) was measured. This was an enzyme based in-vitro assay to evaluate selective COX inhibition with good reproducibility.
(§3) Arachidonic acid was converted to PGH2 (Intermediate product) by COX1/COX-2 in presence or absence of the test compound. The reaction was carried out at 37° C. and after 2 minutes it was stopped by adding 1M HCl. Intermediate products PGH2 was converted to a stable Prostanoid product PGF2α by SnCl2 reduction. The amount of PGF2α produced in the reaction was inversely proportional to the COX inhibitory potential of the test compound. The prostanoid product was quantified via enzyme immunoassay (EIA) using a broadly specific antibody that binds to all the major forms of Prostaglandin, using Cayman ELISA kit as per the procedure outlined by the manufacturer Cayman Chemicals, Ann Arbor, USA).

TNF-α [2] = assay: LPS induced sepsis for measurement of TNF-α inhibition in mice; type: in vivo; conditions: 50 mg/kg bw oral; female Swiss albino mice; serum 90 minutes after LPS
Protocol: LPS Induced Sepsis for Measurement of TNF-α Inhibition in Mice
The LPS induced sepsis model in mice was performed as described by Les sekut et al (J Lab Clin Med 1994; 124:813-20). Female Swiss albino mice were selected with their body weights being equivalent within each group. The mice were fasted for 20 hours with free access to water. The mice were dosed orally with the test compound suspended in vehicle containing 0.5% Tween 80 in 0.25% Carboxy-methylcellulose sodium salt. The control mice were administered the vehicle alone. After 30 minutes of oral dosing, the mice were injected with 500 μg of Lipopolysaccharide (Escherichia coli, LPS: B4 from Sigma) in phosphate buffer saline solution into the intraperitoneal cavity of the mice. After 90 minutes of LPS administration, the mice were bled via retro-orbital sinus puncture. Blood samples were stored overnight at 4° C. Serum samples were collected by centrifuging the samples at 4000 rpm for 15 minutes at 4° C. Immediately the serum samples were analysed for TNF-α levels, using commercially available mouse TNF-α ELISA kit (Amersham Biosciences) and assay was performed by the manufacturer instruction.

TNF-α [3] = assay: In vitro measurement of TNF-α in human PBMC; type: cell-based; conditions: LPS; for pIC50: TNF-α inhibition
Protocol: In Vitro Measurement of Tumor Necrosis Factor Alpha (TNF-α)
This assay determines the effect of test compounds on the production of TNF-α in human Peripheral Blood Mononuclear Cells (PBMC). Compounds were tested for their ability to inhibit the activity of TNF-α in human PBMC. PBMC were isolated from blood (from healthy volunteers) using BD Vacutainer CPT™ (Cell preparation tube, BD Bio Science) and suspended in RPMI medium (Physiol. Res. 52; 593-598, 2003). The test compounds were pre-incubated with PBMC (0.5 million/incubation well) for 15 minutes at 37° C. and then stimulated with Lipopolysaccharide (Escherichia coli: B4; 1 μg/ml) for 18 hours at 37° C. in 5% CO2. The levels of TNF-α in the cell culture medium were estimated using enzyme linked Immunosorbent assay performed in a 96 well format as per the procedure of the manufacturer (R&D Systems, Inc. 614 McKinley Place Nebr., Minneapolis, Minn. 55413, USA).

[4] = target: purified recombinant COX-1 enzyme (Homo sapiens, UniProt P23219); assay: COX-1 enzyme based assay; type: biochemical; conditions: Conc. 10 μM
Protocol: as §1, §2, §3

MCF-7 = assay: Anti-cancer screen (MTT), MCF-7; type: cell-based; conditions: Conc. 100 μM
Protocol: [The source words this procedure for another cell line and reports this cell line under the same test.] (§4) Experimental drugs are screened for anti-cancer activity in three cell lines for their GI50, TGI and LC50 values (using five concentrations for each compound). The cell lines are maintained in DMEM containing 10% fetal bovine serum. 96 well microtiter plates are inoculated with cells in 100 μL for 24 h at 37° C., 5% CO2, 95% air and 100% relative humidity. 5000 HCT116 cells/well, 5000 NCIH460 cells/well, 10000 U251 cells/well and 5000 MDAMB231 cells/well are plated. A separate plate with these cell lines is also inoculated to determine cell viability before the addition of the compounds (T0).
(§5) Following 24 hours incubation, experimental drugs are added to the 96 well plates. Each plate contains one of the above cell lines and the following in triplicate: five different concentrations (0.01, 0.1, 1, 10 and 100 μM) of four different compounds, appropriate dilutions of a cytotoxic standard and control (untreated) wells. Compounds are dissolved in dimethylsulfoxide (DMSO) to make 20 mM stock solutions on the day of drug addition and frozen at −20° C. Serial dilutions of these 20 mM stock solutions are made in complete growth medium such that 100 μL of these drug solutions in medium, of final concentrations equaling 0.01, 0.1, 1, 10 and 100 μM can be added to the cells in triplicate. Standard drugs whose anti-cancer activity has been well documented and which are regularly used are doxorubicin and SAHA.
(§6) Cells are incubated with compounds for 48 hours followed by the addition of 10 μL 3-(4,5-Dimethyl-2-thiazolyl)-2,5-diphenyl-2H-tetrazolium (MTT) solution per well and a subsequent incubation at 37° C., 5% CO2, 95% air and 100% relative humidity, protected from light. After 4 hours, well contents are aspirated carefully followed by addition of 150 μL DMSO per well. Plates are agitated to ensure solution of the formazan crystals in dimethylsulphoxide and absorbance read at 570 nm.
(§7) Percent growth is calculated for each compound's concentration relative to the control and zero measurement wells (To; viability right before compound addition). […]

NCI-H460 = assay: Anti-cancer screen (MTT), NCI-H460; type: cell-based
Protocol: as §4
Following 24 hours incubation, experimental drugs are added to the 96 well plates. […] Compounds are dissolved in dimethylsulfoxide (DMSO) to make 20 mM stock solutions on the day of drug addition and frozen at −20° C. […] Standard drugs whose anti-cancer activity has been well documented and which are regularly used are doxorubicin and SAHA.
as §6
Percent growth is calculated for each compound's concentration relative to the control and zero measurement wells (To; viability right before compound addition). If a test well's O.D. value is greater than the To measurement for that cell line % Growth=(test−zero)/(control−zero)×100
If a test well's O.D. value is lower than the T0 measurement for that cell line, […]

SF-268 = assay: Anti-cancer screen (MTT), SF-268; type: cell-based; conditions: Conc. 100 μM
Protocol: [The source words this procedure for another cell line and reports this cell line under the same test.] as §4, §5, §6, §7

COX-2 = target: T2, COX-2 (Homo sapiens, UniProt P35354); assay: Human whole blood assay, COX-2 inhibition (PGE2 after LPS); type: cell-based; conditions: LPS stimulated; for inhibition at 0.25 µM: Conc. 0.25 μM
T2 construct: Fresh blood was collected in tubes containing sodium heparin by vein puncture from healthy male volunteers; endogenous in cells; host or cells: human whole blood from healthy male volunteers, stimulated with LPS
T2 sequence (P35354 18-604): T1 sequence (P35354 18-604)
Protocol: Human whole blood provides a protein and cell rich milieu appropriate for the study of biochemical efficacy of anti-inflammatory compounds such as selective COX-2 inhibitors. […] This is correlating with the observation that COX-2 inhibitors have no effect on prostaglandin E2 (PGE2) production in normal blood. These inhibitors were active only after incubation of human blood with lipopolysaccharide (LPS), which induces COX-2 production in the blood.
Fresh blood was collected in tubes containing sodium heparin by vein puncture from healthy male volunteers. […] Then test compounds (at various concentrations) or vehicle were added to blood. After that blood was stimulated with LPS B: 4 (10 μg/ml) and incubated for another 18 hours at 37° C. water bath. After which the blood was centrifuged, plasma was separated and stored at −80° C. (J. Pharmacol. Exp. Ther, 271, 1705, 1994; Proc. Natl. Acad. Sci. USA., 96, 7563, 1999). The plasma was assayed for PGE2 using Cayman ELISA kit as per the procedure outlined by the manufacturer (Cayman Chemicals, Ann Arbor, USA).

IL-6 = assay: In vitro measurement of IL-6 in human PBMC; type: cell-based; conditions: Conc. 0.1 μM, LPS
Protocol: (§8) In vitro Measurement of Interleukin-6 (IL-6) & Interleukin-1β (IL1β)
(§9) This assay determines the effect of test compounds on the production of IL-6 and IL1β in human PBMC (Physiol. Res. 52: 593-598, 2003). Compounds were tested for their ability to inhibit the activity of IL-6 and IL1β in human PBMC. PBMC were isolated from blood using BD Vacutainer CPT™ Cell preparation tube (BD Bio Science) and suspended in RPMI medium. The test compounds were preincubated with PBMC (0.5 million/incubation well) for 15 minutes at 37° C. and then stimulated with Lipopolysaccharide (Escherichia coli: B4; 1 μg/ml) for 18 hours at 37° C. in 5% CO2. The levels of IL-6 and IL1β in cell culture medium were estimated using enzyme linked Immunosorbent assay performed in a 96 well format as per the procedure of the manufacturer (R&D Systems, Inc. 614 McKinley Place Nebr., Minneapolis, Minn. 55413, USA).

IL-1β = assay: In vitro measurement of IL-1β in human PBMC; type: cell-based; conditions: Conc. 0.1 μM, LPS
Protocol: as §8, §9

purified recombinant COX-1 enzyme, sequence (P23219 24-599): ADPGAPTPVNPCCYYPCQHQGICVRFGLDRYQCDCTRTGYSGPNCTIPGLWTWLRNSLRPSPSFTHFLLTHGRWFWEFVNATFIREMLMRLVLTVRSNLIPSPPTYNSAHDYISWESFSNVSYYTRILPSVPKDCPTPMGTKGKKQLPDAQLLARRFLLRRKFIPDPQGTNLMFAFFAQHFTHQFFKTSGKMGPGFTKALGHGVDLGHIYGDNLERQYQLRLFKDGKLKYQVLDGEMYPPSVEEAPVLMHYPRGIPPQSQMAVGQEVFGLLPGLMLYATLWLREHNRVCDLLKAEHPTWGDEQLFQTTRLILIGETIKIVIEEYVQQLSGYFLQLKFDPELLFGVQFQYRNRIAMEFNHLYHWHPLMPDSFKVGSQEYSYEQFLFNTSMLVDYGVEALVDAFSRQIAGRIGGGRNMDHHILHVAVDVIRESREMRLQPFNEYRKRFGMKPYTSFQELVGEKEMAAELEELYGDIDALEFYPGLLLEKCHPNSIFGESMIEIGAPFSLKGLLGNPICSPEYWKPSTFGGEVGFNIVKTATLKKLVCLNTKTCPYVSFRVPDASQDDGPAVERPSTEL

inhibition at 10 µM [1] | pIC50 (TNF-α [3]) | inhibition at 10 µM [4] | Compound | TNF-α Inhibition (%) at 50 mg/kg bw (TNF-α [2]) | inhibition at 1 µM (TNF-α [3]) | further results
19.3% | 6.07 | 28.8% | CNc1nc(-c2cccnc2)nc(SC)c1C(=O)Nc1ccc(OC)cc1 [Example 6, N-(4-Methoxyphenyl)-4-(methylamino)-6-(methylthio)-2-pyridin-3-ylpyrimidine-5-carboxamide] | 77.0% |  | melting point: 184 to 197 °C; inhibition at 0.1 µM (TNF-α [3]): 30.3%
23.2% | 6.05 | 25.5% | CNc1nc(-c2cccnc2)nc(NC)c1C(=O)Nc1ccc(OC)cc1 [Example 28, N-(4-Methoxyphenyl)-4,6-bis(methylamino)-2-pyridin-3-ylpyrimidine-5-carboxamide] | 81.5% | 45.1% | 
 |  |  | CCc1ccc(NC(=O)c2c(NC)nc(-c3ccc(SC)cc3)nc2SC)cc1 [Example 8, N-(4-Ethylphenyl)-4-(methylamino)-6-(methylthio)-2-[4-(methylthio)phenyl]pyrimidine-5-carboxamide] |  |  | Percentage growth Breast MCF-7 (MCF-7): 4%; Percentage growth Lung NCI-H460 (NCI-H460; Conc. 100 μM): 0%; inhibition at 0.1 µM (TNF-α [3]): 27.8%; Percentage growth CNS SF-268 (SF-268): 1%
 |  |  | CNc1nc(-c2ccc(S(N)(=O)=O)cc2)nc(NC)c1C(=O)Nc1ccc(C)c(C)c1 [Example 10, 2-[4-(Aminosulfonyl)phenyl]-4,6-bis(methylamino)-N-(3,4-dimethylphenyl)pyrimidine-5-carboxamide] |  |  | inhibition at 10 µM (COX-2; Conc. 10 μM): 24.2%
 |  |  | CNc1nc(-c2ccc(S(N)(=O)=O)cc2)nc(NC)c1C(=O)Nc1ccc(C)cc1 [Example 13, 2-[4-(Aminosulfonyl)phenyl]-4,6-bis(methylamino)-N-(4-methylphenyl)pyrimidine-5-carboxamide] |  |  | inhibition at 0.1 µM (IL-6): 21.5%; IL-1β Inhibition (%) (IL-1β): Not active; inhibition at 0.25 µM (COX-2): 24.5%
26.8% | 5.74 | 15.2% | CSc1nc(-c2ccncc2)nc(NCCO)c1C(=O)Nc1ccc(C)cc1 [Example 35, 4-[(2-Hydroxyethyl)amino]-N-(4-methylphenyl)-6-(methylthio)-2-pyridin-4-ylpyrimidine-5-carboxamide] | 59.94% | 52.7% | GI50 (NCI-H460; Homo sapiens, NCI-H460, 48 hours, MTT): 9 µM
17.1% | 5.82 | 6.58% | CSc1nc(-c2ccncc2)nc(NCCO)c1C(=O)Nc1ccc(C)c(C)c1 [Example 37, N-(3,4-Dimethylphenyl)-4-[(2-hydroxyethyl)amino]-6-(methylthio)-2-pyridin-4-ylpyrimidine-5-carboxamide] | 66.65% | 42.7% | 
 |  |  | CNc1nc(-c2ccc(S(N)(=O)=O)cc2)nc(SC)c1C(=O)Nc1ccc(C)cc1 [Example 12, 2-[4-(Aminosulfonyl)phenyl]-4-(methylamino)-N-(4-methylphenyl)-6-(methylthio)pyrimidine-5-carboxamide] |  |  | inhibition at 0.25 µM (COX-2): 24.9%

Source: patent US7759350B2, “Pyrimidine carboxamides” (Orchid Research Laboratories Ltd., priority 2005, dated 2010)
